In patent US12102672B2, “Immunogenic sequences from a phage tail length tape measure protein, bacteria expressing the same and their use in treating a cancer” (INSTITUT GUSTAVE ROUSSY, priority 2017, dated 2024):

Key:
[1] = tested on: IFNg producing CD8^+ T (Tc1) cells; conditions: naïve mice; cited from earlier work
[2] = tested on: MCA205 cells with PSMB4 GSFARFRNI knock-in; experiment: Growth of Psmb4 knock-in MCA205 tumors under CTX +/- E. hirae 13144; type: in vivo, mice; conditions: L→F exchange in position 3, versus WT MCA205
[3] = tested on: autologous CD4+ T cells or CD8+ T cells; experiment: Blood T cell responses of breast cancer patients to monocytes stimulated with bacteria (IFN-γ, IL-10 release); type: cell-based, human
Protocol: FIG. 22. T cell responses against commensals in blood from breast cancer patients at diagnosis priori to chemotherapy. Autologous monocytes harvested from breast cancer patients were stimulated with distinct bacterial spp. and then incubated with autologous CD4+ T cells or CD8+ T cells to monitor IFN-γ and IL-10 release. (A) TH1/Tc1/Tr1 immune responses to E. hirae 13144. […] (B) TH1/Tc1/Tr1 immune responses to E. coli or TCR cross-linking. BC women display memory T cell responses against E. coli and respond to TCR cross-linking.

pTh17 cells = experiment: Induction of pTh17 cells in secondary lymphoid organs of CTX-treated animals; type: in vivo
Excerpt: The reasons for these differences were however unknown, and the inventors pursued their research to identify the factor(s) responsible for the immunogenic properties of the murine strain EH13144 and the human clones IGR4, IGR7 and IGR11, in order to derive new molecules or microorganisms useful in the treatment of cancer.

E. gallinarum = experiment: Phage transmission from E. hirae to E. gallinarum in small intestine enteroids; design: species or system Enterococcus gallinarum; conditions: 1:1 ratio E. hirae / E. gallinarum on enteroids
Excerpt: . […] Also refer to FIG. 39.
Temperate bacteriophages are bacterial viruses that transfer virulence, antimicrobial resistance genes, and immunogenic sequences to new bacterial hosts (Weinbauer, 2004). The TMP protein, which contains a variable number of tandem repeats with highly conserved tryptophan and phenylalanine residues at fixed positions is encoded by the genome of Siphoviridae phages (Belcaid et al., 2011; Piuri and Hatfull, 2006). To analyze the capacity of E. hirae 13144 to contagiously disseminate the phage TMP sequence, we performed culturomic analyses of the ileal content from C57BL/6 mice subjected to oral gavage with E. hirae 13144 and systemic CTX therapy (FIG. 30C). […] Of note, none of the 90 colonies (mostly of E. gallinarum) isolated from naive mice harbored the TMP sequence (FIG. 39). Moreover, CTX plays a role in eliminating the E. gallinarum, allowing the niching and/or colonization of E. hirae in the small intestine, as shown in vitro in enteroid systems or in PCR of the ileal content (FIG. 30G and not shown). Importantly, incubation of small intestine enteroids with a balanced 1:1 ratio of E. hirae or E. gallinarum harbouring or not the phage respectively, lead to the transmission of the infectious/lytic phage to E. gallinarum by E. hirae in 9% of colonies at 6 hrs and 26% at 20 hrs (FIG. 30G).

Enterococcus hirae 708 [Peptide 708, reference compound]
immunogenic and oncomicrobiotic properties of the isolate [1]: induced IFNg producing CD8^+ T (Tc1) cells

Enterococcus hirae strain 13144 [Peptide 13144]
anticancer effect on PSMB4 knock-in (GSFARFRNI) MCA205 tumors [2]: drastically blunted the anticancer effects
BC patients who developed IL-10 producing memory CD4+ T cell responses ([3]; FIG. 22A): 52%
BC patients with CD4+ T cells exhibiting no reactivity to pulsed monocytes ([3]; FIG. 22A): 32%
BC patients at diagnosis exhibiting a blood TH1/Tc1 immune response ([3]; prior to chemotherapy): Less than 20%
capacity to induce pTh17 cells in secondary lymphoid organs (pTh17 cells): significant capacity to induce pTh17 cells
colonies of E. gallinarum with transmitted phage (E. gallinarum; 6 hrs): 9%
colonies of E. gallinarum with transmitted phage (E. gallinarum; 20 hrs): 26%
